{"source": "patent US7335817B2", "about": "“Canola line 45H25” (Pioneer Hi-Bred International, Inc., priority 2005, dated 2008)", "test_system": "Canola Variety 45H25", "experiment": "Herbicide resistance of canola variety 45H25 at standard recommended application rates", "assay_type": "in vivo, Brassica napus", "conditions": "for Herbicide resistance (Description): response of variety 45H25 to the herbicide, in words; for Herbicide resistance rating (Mean): scale 0 = not tested, 1 = resistant, variety 45H25", "source_text": "When preparing the detailed phenotypic information that follows, plants of the new 45H25 variety were observed while growing using conventional agronomic practices. For comparative purposes canola plants of four publicly available canola lines were similarly grown in a three-replication experiment. Based on observations recorded on various morphological traits for the variety 45H25 and comparative check cultivars, variety 45H25 can be described as follow: […]", "note": "Entries after “also recorded” stand apart in the source; their conditions may differ.", "data": [{"smiles": "CP(=O)(O)CCC(N)C(=O)O", "note": "(centres unmarked) [Glufosinate]", "values": [{"measurement": "Herbicide resistance (Description)", "result": "susceptible"}, {"measurement": "Herbicide resistance rating (Mean)", "setting": "5 = tolerant, 9 = susceptible", "result": 9.00}]}, {"smiles": "O=C(O)CNCP(=O)(O)O", "note": "[Glyphosate]", "values": [{"measurement": "Herbicide resistance (Description)", "result": "resistant"}, {"measurement": "Herbicide resistance (Description)", "setting": "listed as glyphosate", "result": "resistance; also recorded: resistant"}, {"measurement": "Herbicide resistance rating (Mean)", "setting": "2 = tolerant, 3 = susceptible", "result": 1.00}]}]}
